From ChEMBL document CHEMBL4831515 (J Med Chem, 2021)
Values after ≈ are worked out from the molar mass of the structure shown. One block for each molecule: values may come before it.

Columns and labels:
[1] = tested on: Human immunodeficiency virus 1; experiment: Antiviral activity against HIV1 harboring F227L/V106A mutant infected in human MT4 cells assessed as reduction in virus-induced cytopathogenic effect by MTT assay; type: functional, organism-based; settings: Human immunodeficiency virus 1, MT4
[2] = tested on: Human immunodeficiency virus 1; experiment: Antiviral activity against HIV1 3B infected in human MT4 cells assessed as reduction in virus-induced cytopathogenic effect by MTT assay; settings: Human immunodeficiency virus 1, 3B
[3] = Cytotoxicity against human MT4 cells assessed as reduction in cell viability by MTT assay
[4] = tested on: Human immunodeficiency virus 1; experiment: Antiviral activity against HIV1 RES056 infected in human MT4 cells assessed as reduction in virus-induced cytopathogenic effect by MTT assay; settings: Human immunodeficiency virus 1, RES056, MT4
[5] = tested on: Human immunodeficiency virus 1; experiment: Antiviral activity against HIV1 harboring K103N mutant infected in human MT4 cells assessed as reduction in virus-induced cytopathogenic effect by MTT assay; type: functional, organism-based; settings: Human immunodeficiency virus 1, MT4
[6] = Solubility in phosphate buffer at pH7; settings: pH 7
[7] = tested on: Human immunodeficiency virus 1; experiment: Antiviral activity against HIV1 harboring L100I mutant infected in human MT4 cells assessed as reduction in virus-induced cytopathogenic effect by MTT assay; settings: Human immunodeficiency virus 1, MT4
[8] = tested on: Human immunodeficiency virus 2; experiment: Antiviral activity against wild type HIV2 ROD infected in human MT4 cells assessed as reduction in virus-induced cytopathogenic effect by MTT assay; settings: Human immunodeficiency virus 2, ROD
[9] = tested on: Human immunodeficiency virus 1; settings: Human immunodeficiency virus 1, MT4
[10] = tested on: Human immunodeficiency virus 1; experiment: Antiviral activity against wild type HIV1 harboring Y181C mutant infected in human MT4 cells assessed as reduction in virus-induced cytopathogenic effect by MTT assay; settings: Human immunodeficiency virus 1, MT4
[11] = tested on: Human immunodeficiency virus 1; experiment: Antiviral activity against wild type HIV1 harboring Y188L mutant infected in human MT4 cells assessed as reduction in virus-induced cytopathogenic effect by MTT assay; settings: Human immunodeficiency virus 1, MT4
in vitro [12] = settings: human, MT4 cells
Description: Selectivity index, ratio of CC50 for human MT4 cells to EC50 for HIV1 harboring E138K mutant infected in human MT4 cells

[13] = molecular target: Human immunodeficiency virus type 1 reverse transcriptase (Human immunodeficiency virus 1, UniProt Q72547); experiment: Inhibition of wild type HIV1 reverse transcriptase assessed as reduction in biotin-dUTP incorporation into […] incubated for 1 hrs by ELISA
[14] = Selectivity ratio of CC50 for human MT4 cells to IC50 for HIV1 RES056 infected in MT4 cells
[15] = Volume of distribution in Sprague-Dawley rat at 2 mg/kg, iv measured after 5 to 600 mins by LC-MS/MS analysis; type: ADME, organism-based; settings: in vivo, time 5-600 min
[16] = AUC(0 to last) in Sprague-Dawley rat at 2 mg/kg, iv measured after 5 to 600 mins by LC-MS/MS analysis; type: ADME, organism-based; design: route intravenous, dose 2 mg/kg, time upper 600 min, time lower 5 min; settings: in vivo
[17] = Cmax in Sprague-Dawley rat at 20 mg/kg, po measured after 15 to 720 mins by LC-MS/MS analysis; type: ADME, organism-based; design: route oral, dose 20 mg/kg, time 15-720 min; settings: in vivo
[18] = Acute toxicity in ig dosed Kunming mouse measured every day for 7 days; type: organism-based; settings: in vivo, po, time 7 day
in vitro [19] = settings: human, liver microsomes
[20] = Acute toxicity in Kunming mouse assessed as effect on body weight at 1000 mg/kg, ig measured every day for 7 days; type: organism-based; settings: in vivo, po, 168 h, time 7 day
[21] = Stability in human liver microsomes assessed as compound remaining preincubated for 10 mins followed by phosphate buffer addition and incubated for 1 hr and subsequent addition of NADPH regenerating system and measured after 60 mins by LC-MS/MS analysis; type: ADME, Microsome; settings: time 190 min, read-out: Stability
[22] = MRT (0 to infinity) in Sprague-Dawley rat at 20 mg/kg, po measured after 15 to 720 mins by LC-MS/MS analysis; type: ADME, organism-based; settings: in vivo, time 15-720 min
[23] = Half life in human liver microsomes preincubated for 10 mins followed by phosphate buffer addition and incubated for 1 hr and subsequent addition of NADPH regenerating system and measured after 2 hrs by LC-MS/MS analysis
[24] = MRT (0 to infinity) in Sprague-Dawley rat at 2 mg/kg, iv measured after 5 to 600 mins by LC-MS/MS analysis; type: ADME, organism-based; settings: in vivo, time 5-600 min
[25] = AUC (0 to infinity) in Sprague-Dawley rat at 20 mg/kg, po measured after 15 to 720 mins by LC-MS/MS analysis; type: ADME, organism-based; design: route oral, time lower 15 min, dose 20 mg/kg, time upper 720 min; settings: in vivo
[26] = AUC(0 to infinity) in Sprague-Dawley rat at 2 mg/kg, iv measured after 5 to 600 mins by LC-MS/MS analysis; type: ADME, organism-based; design: route intravenous, time 5-600 min, dose 2 mg/kg; settings: in vivo
[27] = Tmax in Sprague-Dawley rat at 2 mg/kg, iv measured after 5 to 600 mins by LC-MS/MS analysis; type: ADME, organism-based; settings: in vivo, time 5-600 min
[28] = Tmax in Sprague-Dawley rat at 20 mg/kg, po measured after 15 to 720 mins by LC-MS/MS analysis; type: ADME, organism-based; settings: in vivo, time 15-720 min
[29] = Half life in Sprague-Dawley rat at 20 mg/kg, po measured after 15 to 720 mins by LC-MS/MS analysis; type: ADME, organism-based; settings: in vivo, time 15-720 min
[30] = Acute toxicity in Kunming mouse assessed as mortality at 1000 mg/kg, ig measured every day for 7 days; type: organism-based; settings: in vivo, po, 168 h, time 7 day
[31] = AUC (0 to last) in Sprague-Dawley rat at 20 mg/kg, po measured after 15 to 720 mins by LC-MS/MS analysis; type: ADME, organism-based; design: route oral, time lower 15 min, dose 20 mg/kg, time upper 720 min; settings: in vivo
[32] = Acute toxicity in Kunming mouse assessed as effect on growth at 1000 mg/kg, ig measured every day for 7 days; type: organism-based; settings: in vivo, po, 168 h, time 7 day
[33] = Clearance in Sprague-Dawley rat at 2 mg/kg, iv measured after 5 to 600 mins by LC-MS/MS analysis; type: ADME, organism-based; settings: in vivo, time 5-600 min
[34] = Cmax in Sprague-Dawley rat at 2 mg/kg, iv measured after 5 to 600 mins by LC-MS/MS analysis; type: ADME, organism-based; design: route intravenous, time lower 5 min, dose 2 mg/kg, time upper 600 min; settings: in vivo
[35] = Half life in Sprague-Dawley rat at 2 mg/kg, iv measured after 5 to 600 mins by LC-MS/MS analysis; type: ADME, organism-based; settings: in vivo, time 5-600 min
[36] = Acute toxicity in Kunming mouse assessed as induction of poisoning at 1000 mg/kg, ig measured every day for 7 days; type: organism-based; settings: in vivo, po, 168 h, time 7 day

Structure (SMILES): Cc1cc(C#N)cc(C)c1Oc1nc(Nc2ccc(C#N)cc2)nc(N)c1Br [ETRAVIRINE]
- EC50 [1]: 14.3 nM
- EC50 [2]: 5.03 nM
- CC50 [3]: > 4590 nM
- EC50 [4]: 42.5 nM
- EC50 [5]: 3.14 nM
- solubility [6]: < 1000 ng/mL
- EC50 [7]: 6.36 nM
- EC50 [8]: > 4590 nM
- EC50 [9]: 8.08 nM

Structure (SMILES): Cc1cc(C#N)cc(C)c1Oc1nc(NC2CCN(Cc3ccc(C(N)=O)cc3)CC2)nc2c1CSCC2
- EC50 [10]: 21.4 nM
- EC50 [11]: 22.8 nM
- EC50 [1]: 853 nM
- EC50 [2]: 9.98 nM
- CC50 [3]: > 236000 nM
- EC50 [4]: 140 nM
- EC50 [5]: 8.8 nM
- selectivity ratio (in vitro [12]): > 7180
- EC50 [7]: 22.3 nM
- EC50 [8]: > 236000 nM
- EC50 [9]: 32.9 nM
- IC50 [13]: 143 nM
- selectivity ratio [14]: > 1690

Structure (SMILES): Cc1cc(C#N)cc(C)c1Oc1nc(NC2CCN(Cc3ccc(S(N)(=O)=O)cc3)CC2)nc2c1CSCC2
- EC50 [10]: 7.44 nM
- EC50 [11]: 12.6 nM
- EC50 [1]: 15.1 nM
- EC50 [2]: 13.7 nM
- CC50 [3]: > 221000 nM
- EC50 [4]: 120 nM
- EC50 [5]: 7.17 nM
- selectivity ratio (in vitro [12]): > 13900
- EC50 [7]: 7.88 nM
- EC50 [8]: > 221000 nM
- EC50 [9]: 15.9 nM
- IC50 [13]: 151 nM
- selectivity ratio [14]: > 1850

- solubility [6]: 2 ng/mL (≈ 5.46 nM)
Structure (SMILES): Cc1cc(/C=C/C#N)cc(C)c1Nc1ccnc(Nc2ccc(C#N)cc2)n1 [RILPIVIRINE]

Structure (SMILES): Cc1cc(/C=C/C#N)cc(C)c1Oc1nc(Nc2ccc(C#N)cc2)nc2c1CSCC2
- Vd [15]: 0.702 L/kg
- AUC(0-t) [16]: 1510 ng·h/mL
- Cmax [17]: 16.6 ng/mL
- EC50 [10]: 14.9 nM
- LD50 at 168 h [18]: > 1000 mg/kg
- microsomal CLint at 2 h (in vitro [19]): 188 µL/min/mg
- Activity [20]: Non-Toxic
- EC50 [11]: 54.5 nM
- EC50 [1]: 42.9 nM
- remaining at 1 h [21]: 0.3%
- MRT inf [22]: 174 min
- half-life at 2 h [23]: 7.4 min
- MRT inf [24]: 30 min
- EC50 [2]: 9.67 nM
- CC50 [3]: 284000 nM
- AUC(0-inf) [25]: 24 ng·h/mL
- AUC(0-inf) [26]: 1510 ng·h/mL
- Tmax [27]: 4.98 min
- EC50 [4]: 47.8 nM
- EC50 [5]: 4.44 nM
- Tmax [28]: 15 min
- half-life [29]: 121 min
- EC50 [7]: 4.44 nM
- Activity [30]: Non-Toxic
- AUC(0-t) [31]: 19.5 ng·h/mL
- EC50 [8]: > 284000 nM
- Activity [32]: Non-Toxic
- clearance [33]: 23 mL/min/kg
- Cmax [34]: 8880 ng/mL
- EC50 [9]: 9.78 nM
- half-life [35]: 116 min
- Activity [36]: Non-Toxic
- IC50 [13]: 81 nM

Structure (SMILES): Cc1cc(/C=C/C#N)cc(C)c1Oc1nc(NC2CCN(Cc3ccc(C(N)=O)cc3)CC2)nc2c1CSCC2
- EC50 [10]: 31.1 nM
- EC50 [11]: 35.2 nM
- EC50 [1]: 20 nM
- EC50 [2]: 15.5 nM
- CC50 [3]: 18500 nM
- EC50 [4]: 37.3 nM
- EC50 [5]: 12.5 nM
- selectivity ratio (in vitro [12]): 615
- EC50 [7]: 8.65 nM
- EC50 [8]: > 18500 nM
- EC50 [9]: 30 nM
- IC50 [13]: 179 nM
- selectivity ratio [14]: 495
